Test results: US20190010139A1 (priority 2015, published 2019)
Like-named read-outs stand apart in the source and are kept apart here.

System: NL-RLuc virus
Assay: Inhibition of HIV replication (NL-RLuc luciferase reporter virus in MT-2 cells)
Assay type: cell-based
Details: Human immunodeficiency virus 1, MT2, 120 h
Text: Inhibition of HIV Replication:
A recombinant NL-RLuc proviral clone was constructed in which a section of the nef gene from NL4-3 was replaced with the Renilla Luciferase gene. This virus is fully infectious and can undergo multiple cycles of replication in cell culture. In addition, the luciferous reporter provides a simple and easy method for quantitating the extent of virus growth and consequently, the antiviral activity of test compounds. The plasmid pNLRLuc contains the proviral NL-Rluc DNA cloned into pUC 18 at the PvuII site. The NL-RLuc virus was prepared by transfection of 293T cells with the plasmid pNLRLuc. Transfections were performed using the LipofectAMINE PLUS kit from Invitrogen (Carlsbad, Calif.) according to the manufacturer and the virus generated was titered in MT-2 cells. For susceptibility analyses, the titrated virus was used to infect MT-2 cells in the presence of compound, and after 5 days of incubation, cells were processed and quantitated for virus growth by the amount of expressed luciferase. Assay media was RPMI 1640 supplemented with 10% heat inactivated fetal bovine serum (FBS), 100 units/ml penicillin G/100 units/ml streptomycin, 10 mM HEPES buffer pH 7.55 and 2 mM L-glutamine. The results from at least 2 experiments were used to calculate the EC50 values. Luciferase was quantitated using the Dual Luciferase kit from Promega (Madison, Wis.). Susceptibility of viruses to compounds was determined by incubation in the presence of serial dilutions of the compound. The 50% effective concentration (EC50) was calculated by using the exponential form of the median effect equation where (Fa)=1/[1+(ED50/drug conc.)^m](Johnson V A, Byington R T. Infectivity Assay. In Techniques in HIV Research. ed. Aldovini A, Walker B D. 71-76. New York: Stockton Press.1990). Activity equal to A refers to a compound having an EC50≤100 nM, while B and C denote compounds having an EC50 between 100 nM and 1 uM (B) or >1 uM (C).

Cc1nc(C)c([C@H](OC(C)(C)C)C(=O)O)c(N2CC3CCC2C3)c1-c1ccc(C(=O)NCc2ccccc2)cc1 (stereo partly drawn) [Example 1, (S)-2-(5-(4-(Benzylcarbamoyl)phenyl)-4-(2-azabicyclo[2.2.1]heptan-2-yl)-2,6-dimethylpyridin-3-yl)-2-(tert-butoxy)acetic acid]
EC50 (read-out: Activity): 0.1 to 1 µM | EC50 (read-out: EC50 μM): 0.446 µM

Cc1nc(C)c([C@H](OC(C)(C)C)C(=O)O)c(N2CCc3ccccc3C2)c1-c1ccc(OCCc2ccc(F)cc2)cc1 [Example 2, (S)-2-(tert-Butoxy)-2-(4-(3,4-dihydroisoquinolin-2(1H)-yl)-5-(4-(4-fluorophenethoxy)phenyl)-2,6-dimethylpyridin-3-yl)acetic acid]
EC50 (read-out: EC50 μM): 0.036 µM

Cc1nc(C)c([C@H](OC(C)(C)C)C(=O)O)c(N2CC3CCCC3C2)c1-c1ccc(OCCc2ccc(F)cc2)cc1 (stereo partly shown) [Example 3]
EC50 (read-out: Activity): < 0.1 µM

Cc1nc(C)c([C@H](OC(C)(C)C)C(=O)O)c(N2CC3CCCC3C2)c1-c1ccc(C(=O)NCc2ccccc2)cc1 (stereo partly drawn) [Example 4, (2S)-2-(5-(4-(Benzylcarbamoyl)phenyl)-4-(hexahydrocyclopenta[c]pyrrol-2(1H)-yl)-2,6-dimethylpyridin-3-yl)-2-(tert-butoxy)acetic acid]
EC50 (read-out: Activity): < 0.1 µM

Cc1nc(C)c([C@H](OC(C)(C)C)C(=O)O)c(N2CC3CCC(C)(C2)C3(C)C)c1-c1ccc(C(=O)NCc2ccccc2)cc1 (stereo partly drawn) [Example 5, (S)-2-(5-(4-(Benzylcarbamoyl)phenyl)-2,6-dimethyl-4-(1,8,8-trimethyl-3-azabicyclo[3.2.1]octan-3-yl)pyridin-3-yl)-2-(tert-butoxy)acetic acid]
EC50 (read-out: Activity): < 0.1 µM

Cc1nc(C)c([C@H](OC(C)(C)C)C(=O)O)c(N2CC3CC3C2)c1-c1ccc(OCCc2ccc(F)cc2)cc1 (stereo partly drawn) [Example 6, (2S)-2-(4-(3-Azabicyclo[3.1.0]hexan-3-yl)-5-(4-(4-fluorophenethoxy)phenyl)-2,6-dimethylpyridin-3-yl)-2-(tert-butoxy)acetic acid]
EC50 (read-out: Activity): 0.1 to 1 µM

Cc1nc(C)c([C@H](OC(C)(C)C)C(=O)O)c(N2CC3CC3C2)c1-c1ccc(C(=O)NCc2ccccc2)cc1 (stereo partly drawn) [Example 7, (2S)-2-(5-(4-(Benzylcarbamoyl)phenyl)-4-(3-azabicyclo[3.1.0]hexan-3-yl)-2,6-dimethylpyridin-3-yl)-2-(tert-butoxy)acetic acid]
EC50 (read-out: Activity): 0.1 to 1 µM | EC50 (read-out: EC50 μM): 0.651 µM

Cc1nc(C)c([C@H](OC(C)(C)C)C(=O)O)c(N2CC3C(C2)C3(C)C)c1-c1ccc(OCCc2ccc(F)cc2)cc1 (stereo partly drawn) [Example 8, (2S)-2-(tert-Butoxy)-2-(4-(6,6-dimethyl-3-azabicyclo[3.1.0]hexan-3-yl)-5-(4-(4-fluorophenethoxy)phenyl)-2,6-dimethyl-pyridin-3-yl)acetic acid]
EC50 (read-out: Activity): < 0.1 µM

Cc1nc(C)c([C@H](OC(C)(C)C)C(=O)O)c(N2CC3C(C2)C3(C)C)c1-c1ccc(C(=O)NCc2ccccc2)cc1 (stereo partly drawn) [Example 9, (2S)-2-(5-(4-(Benzylcarbamoyl)phenyl)-4-(6,6-dimethyl-3-azabicyclo[3.1.0]hexan-3-yl)-2,6-dimethylpyridin-3-yl)-2-(tert-butoxy)acetic acid]
EC50 (read-out: Activity): < 0.1 µM | EC50 (read-out: EC50 μM): 0.083 µM

Cc1nc(C)c([C@H](OC(C)(C)C)C(=O)O)c(N2CCc3ccccc3C2)c1-c1ccc(OCCc2ccc(F)cc2)cc1 [Example 10, (S)-2-(tert-Butoxy)-2-(4-(3,4-dihydroisoquinolin-2(1H)-yl)-5-(4-(4-fluorophenethoxy)phenyl)-2,6-dimethylpyridin-3-yl)acetic acid]
EC50 (read-out: Activity): < 0.1 µM

Cc1nc(C)c([C@H](OC(C)(C)C)C(=O)O)c(N2CC[C@H]3CCCC[C@H]3C2)c1-c1ccc(C(=O)NCc2ccccc2)cc1 [Example 11, (S)-2-(5-(4-(Benzylcarbamoyl)phenyl)-2,6-dimethyl-4-((4aR,8aR)-octahydroisoquinolin-2(1H)-yl)pyridin-3-yl)-2-(tert-butoxy)acetic acid]
EC50 (read-out: Activity): < 0.1 µM

Cc1nc(C)c([C@H](OC(C)(C)C)C(=O)O)c(N2CC[C@H]3CCCC[C@@H]3C2)c1-c1ccc(OCCc2ccc(F)cc2)cc1 [Example 12, (S)-2-(tert-Butoxy)-2-(5-(4-(4-fluorophenethoxy)phenyl)-2,6-dimethyl-4-((4aR,8aS)-octahydroisoquinolin-2(H)-yl)pyridin-3-yl)acetic acid]
EC50 (read-out: Activity): < 0.1 µM

Cc1nc(C)c([C@H](OC(C)(C)C)C(=O)O)c(N2CC[C@H]3CCCC[C@@H]3C2)c1-c1ccc(C(=O)NCc2ccccc2)cc1 [Example 13, (S)-2-(5-(4-(Benzylcarbamoyl)phenyl)-2,6-dimethyl-4-((4aR,8aS)-octahydroisoquinolin-2(1H)-yl)pyridin-3-yl)-2-(tert-butoxy)acetic acid]
EC50 (read-out: Activity): < 0.1 µM

Cc1nc(C)c([C@H](OC(C)(C)C)C(=O)O)c(N2CCC3(CCCC3)C2)c1-c1ccc(OCCc2ccc(F)cc2)cc1 [Example 14, (S)-2-(tert-Butoxy)-2-(5-(4-(4-fluorophenethoxy)phenyl)-2,6-dimethyl-4-(2-azaspiro[4.4]nonan-2-yl)pyridin-3-yl)acetic acid]
EC50 (read-out: Activity): < 0.1 µM

Cc1nc(C)c([C@H](OC(C)(C)C)C(=O)O)c(N2CCC3(CCCC3)C2)c1-c1ccc(C(=O)NCc2ccccc2)cc1 [Example 15, (S)-2-(5-(4-(Benzylcarbamoyl)phenyl)-2,6-dimethyl-4-(2-azaspiro[4.4]nonan-2-yl)pyridin-3-yl)-2-(tert-butoxy)acetic acid]
EC50 (read-out: Activity): < 0.1 µM

Cc1nc(C)c([C@H](OC(C)(C)C)C(=O)O)c(N2CCC3(CC2)CC3)c1-c1ccc(OCCc2ccc(F)cc2)cc1 [Example 16, (S)-2-(tert-Butoxy)-2-(5-(4-(4-fluorophenethoxy)phenyl)-2,6-dimethyl-4-(6-azaspiro[2.5]octan-6-yl)pyridin-3-yl)acetic acid]
EC50 (read-out: Activity): < 0.1 µM | EC50 (read-out: EC50 μM): 0.003 µM

Cc1nc(C)c([C@H](OC(C)(C)C)C(=O)O)c(N2CCC3(CC2)CC3)c1-c1ccc(C(=O)NCc2ccccc2)cc1 [Example 17, (S)-2-(5-(4-(Benzylcarbamoyl)-phenyl)-2,6-dimethyl-4-(6-azaspiro[2.5]octan-6-yl)pyridin-3-yl)-2-(tert-butoxy)acetic acid]
EC50 (read-out: Activity): < 0.1 µM

Cc1nc(C)c([C@H](OC(C)(C)C)C(=O)O)c(N2CCCC3(CCCC3)C2)c1-c1ccc(OCCc2ccc(F)cc2)cc1 [Example 18, (S)-2-(tert-Butoxy)-2-(5-(4-(4-fluorophenethoxy)phenyl)-2,6-dimethyl-4-(7-azaspiro[4.5]decan-7-yl)pyridin-3-yl)acetic acid]
EC50 (read-out: Activity): 0.1 to 1 µM | EC50 (read-out: EC50 μM): 0.475 µM

Cc1nc(C)c([C@H](OC(C)(C)C)C(=O)O)c(N2CCCC3(CCCC3)C2)c1-c1ccc(C(=O)NCc2ccccc2)cc1 [Example 19, (S)-2-(5-(4-(Benzylcarbamoyl)phenyl)-2,6-dimethyl-4-(7-azaspiro[4.5]decan-7-yl)pyridin-3-yl)-2-(tert-butoxy)acetic acid]
EC50 (read-out: Activity): 0.1 to 1 µM

Cc1nc(C)c([C@H](OC(C)(C)C)C(=O)O)c(N2CCC3(CCCC3)CC2)c1-c1ccc(OCCc2ccc(F)cc2)cc1 [Example 20, (S)-2-(tert-Butoxy)-2-(5-(4-(4-fluorophenethoxy)phenyl)-2,6-dimethyl-4-(8-azaspiro[4.5]decan-8-yl)pyridin-3-yl)acetic acid]
EC50 (read-out: Activity): < 0.1 µM
